Here are results for 3 molecules from article PMC7309601 (Frontiers in Neuroscience, 2020).

Entries after “also recorded” stand apart in the source; their conditions may differ.

Series [1] deals with 5-HT3 receptors. The arrangement: method as in Thompson et al., 2007; Janowsky et al., 2014. As to conditions: ref Thompson et al., 2007; Janowsky et al., 2014; cited from earlier work.
Series [2] has as its target T1, mouse hippocampus AChE (Mus musculus, UniProt P21836).
T1 construct: from tissue; host or cells: mouse hippocampus homogenate, cleared supernatant
T1 sequence (P21836 32-614): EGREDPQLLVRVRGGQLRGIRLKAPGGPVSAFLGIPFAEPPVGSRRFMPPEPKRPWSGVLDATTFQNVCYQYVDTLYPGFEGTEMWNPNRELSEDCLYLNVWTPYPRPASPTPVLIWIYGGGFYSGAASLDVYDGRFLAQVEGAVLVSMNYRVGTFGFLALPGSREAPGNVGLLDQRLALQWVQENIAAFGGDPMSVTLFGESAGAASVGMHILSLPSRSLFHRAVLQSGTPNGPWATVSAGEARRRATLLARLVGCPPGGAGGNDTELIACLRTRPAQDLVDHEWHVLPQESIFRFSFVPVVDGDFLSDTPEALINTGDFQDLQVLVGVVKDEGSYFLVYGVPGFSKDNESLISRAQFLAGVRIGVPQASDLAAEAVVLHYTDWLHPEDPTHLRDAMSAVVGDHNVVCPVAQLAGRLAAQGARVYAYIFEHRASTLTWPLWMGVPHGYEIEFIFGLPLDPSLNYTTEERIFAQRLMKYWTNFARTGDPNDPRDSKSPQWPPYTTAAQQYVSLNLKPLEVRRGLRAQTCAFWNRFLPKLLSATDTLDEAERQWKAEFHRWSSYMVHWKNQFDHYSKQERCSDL
It counts as biochemical. As to the method: Acetylcholinesterase activity was quantified using a cholinesterase activity assay kit according to manufacturer’s recommendations (MAK119; Sigma, St. Louis, MO, United States). Briefly, mouse hippocampus was homogenized (10 μL/mg) in 0.1 M Na/K phosphate buffer (PB) (pH 7.5) at 4°C followed by centrifugation at 30,000 × g for 5 min. […] Absorbance at 415 nm was quantified using VICTOR plate reader (Perkin–Elmer Inc., Waltham, Massachusetts, United States) at 2-min intervals from time 0 (tissue sample addition) up to 10 min. Acetylcholinesterase activity was expressed as units/L. One unit of AChE is the amount of enzyme that catalyzes the production of 1.0 μmol of thiocholine per minute at room temperature at pH 7.5.
Acetylcholinesterase activity is expressed as percent of that determined in the absence of drugs.

Series [3] relates to Cx-mediated astroglial cellular coupling. The arrangement: method as in Jeanson et al., 2016. Conditions: same concentration range as reached under the treatment conditions; ref Jeanson et al., 2016; cited from earlier work.
For series [4], the system named is Aβ25–35 peptide-injected mice. The experiment in a line: Novel object recognition (NOR) task in Aβ25–35-injected mice. Format: in vivo. As to the method:
(§1) Both novel object recognition (NOR) and novel object location (NOL) tests were carried out in an open-field arena during three phases ([Leger et al., 2013]; [Vogel-Ciernia and Wood, 2014]; [Lueptow, 2017]). (i) For the habituation phase on the first day, mice were allowed to freely explore the empty apparatus. (ii) On the second day, two identical objects were placed at two opposite edges of the arena. Time spent by the mouse exploring the two objects was recorded. (iii) Twenty-four hours later, one of the two familiar objects was replaced by a novel one (NOR) or displaced (NOL). Mice were allowed to explore the whole arena during 10 min for each of the three phases. The preference index was calculated as the ratio of the duration of contacts with the novel/displaced object over the total duration of contacts with the two objects. Locomotion was recorded using EthoVision software (Noldus, Paris, France).

The target in series [5] is 5-HT1A. The arrangement: method as in Thompson et al., 2007; Janowsky et al., 2014. As to conditions: ref Thompson et al., 2007; Janowsky et al., 2014; cited from earlier work.
Series [6] has as its target 5-HT2C. The arrangement: method as in Thompson et al., 2007; Janowsky et al., 2014. Conditions: ref Thompson et al., 2007; Janowsky et al., 2014; cited from earlier work.
The test system of series [7] is Aβ25–35 peptide-injected mice. The series can be described thus: Morris water maze in Aβ25–35-injected mice.
Source text: Control groups received the vehicles only under the very same conditions (volume, time, route of administration) as tested drugs.
Both peptides Aβ25–35 and Sc.Aβ (scramble Aβ25–35) were purchased from PolyPeptides (Strasbourg, France).
Mice were placed in a circular pool with external cues in the room. […] Training consisted of three swims with 20-min intertrial time each day for 5 days, performed between days 11 and 15 after Aβ25–35 peptide or Sc.Aβ peptide i.c.v. injection. Random starting positions were selected each day, and each animal was allowed a 90-s swim to find the platform. Probe test was performed 24 h after the last swim (day 16 after peptide injection). The platform was removed, and each animal was allowed a free 60-s swim. The time spent in each quadrant was determined. Swimming was recorded using EthoVision software (Noldus).
The target of series [8] is T2, sigma-1 receptor (Homo sapiens, UniProt Q99720).
T2 construct: Eurofins CEREP
The series can be described thus: Eurofins CEREP sigma-1 receptor test. It counts as binding. As to conditions: MEF at a concentration as high as 1 μM; data not shown.

Series [9] has as its system ACh outflow in the hippocampus. The experiment in a line: Hippocampal microdialysis and quantification of ACh. Format: in vivo, mice. Conditions: MEF 1 mg/kg i.p. alone. As to the method:
Mice were anesthetized with isoflurane, placed in a stereotaxic frame and bilaterally implanted with probes in both left and right hippocampi.
Concentrations of ACh in the microdialysis samples were analyzed by the Pronexus Analytical AB company (Stockholm, Sweden) using UHPLC tandem mass spectrometry (MS/MS). Briefly, the UHPLC-MS/MS system included a PAL autosampler (CTC Analytics, Zwingen, Switzerland), an Advance UHPLC pump, and an EVOQ Elite triple quadrupole mass spectrometer (Bruker Daltonics, Fremont, CA, United States) equipped with electrospray ionization source operating in a positive mode at +4,500 V. The source parameters were as follows: probe gas flow: 50, nebulizer gas flow: 60, probe temperature: +300°C, cone gas flow: 30, cone temperature: +200°C, CID gas: Ar 1.5 mTorr. A Titan PFP column (100 × 2.1 mm, 1.9 μm, 120 Å pore size) purchased from Sigma-Aldrich (Sweden) was used for UHPLC. Deuterated ACh (acetylcholine-1,1,2,2-d4 bromide; ACh-d4), used as internal standard, was purchased from C/D/N Isotopes (QMX Laboratories, Dunmow CM6 2PY, United Kingdom). Typically, 10 μL of aCSF or hippocampal microdialysate was mixed with 20 μL of ACh-d4 internal standard (50 nM, in aCSF), and 5 μL of the mixture was injected into the column. The mobile phase A was 0.1% (vol/vol) formic acid in water; the mobile phase B was acetonitrile with 0.1% formic acid. The linear elution gradient was as follows: 0–0.5 min: 5% B; 3.5 min: 55% B; 3.6 to 4.0 min: 70% B; 4.1 min, 5% B. The flow rate was 400 μL/min, and the total run-to-run time was 4.8 min. The calibration curve was linear in the range of 0.1 to 409.6 nM ACh (R^2 = 0.999); the estimated limit of detection was 0.05 nM, and the lower limit of quantification was 0.15 nM.
. 1 mg/kg, i.p.), or vehicle (NaCl 0.9%). Values are expressed as means ± SEM, n = 4–7 per group. Two-way ANOVA followed by Fisher least significant difference: *P < 0.05, **P < 0.01 vs Vehicle; […]. Acetylcholinesterase activity is expressed as percent of that determined in the absence of drugs. […]

The conditions of series [10]: rat, in vivo; cited from earlier work.
The target of series [11] is noradrenaline transporters. The arrangement: method as in Janowsky et al., 2014. Conditions: ref Janowsky et al., 2014; cited from earlier work.
The nature of series [12]: in vivo. Conditions: rat. As to the method:
Drugs were administered p.o., once per day for 14 days.
Blood was collected on the 14th treatment day, just prior to drug administration (T0) and then 30 min, 1, 2, 4, 8, and 24 h later. Blood was collected by retro-orbital puncture except for the last collection, which was made by intracardiac puncture. After coagulation, blood samples were centrifuged at 3,000 × g for 15 min, and serum was collected and stored at −80°C. Rats were sacrificed by decapitation immediately after the last blood collection, and their brains including brainstem and cerebellum were removed as one piece, placed on tinfoil precooled on dry ice and stored at −80°C until drug quantifications.
One volume of brain or serum samples was added to three volumes of human serum EDTA K3, and the mixture was homogenized under magnetic stirring for 15 min for analysis using a Sciex API4000 Qtrap mass spectrometer coupled to a Shimadzu HPLC system (Shimadzu Corporation, Marne-la-Vallée, France).
(A,C) Blood samples were collected before treatment (T0) and then at 0.5, 1, 2, 4, 8, and 24 h after the last administration on day 14. (B,D) Brain samples were collected on day 15, 24 h after the last drug administration. […] No statistical analysis applicable (C,D). Bars in black indicate combination treatments.

Series [13] relates to scopolamine-treated mice. The series can be described thus: Novel object recognition (NOR) task after scopolamine challenge. Format: in vivo. Conditions: scopolamine 0.5 mg/kg s.c. On the procedure:
as §1

The subject of series [14] is scopolamine-treated mice injected with sh-GFP, sh-Cx30 or sh-Cx43. The series can be described thus: Novel object location (NOL) task in lentiviral vector-injected, scopolamine-treated mice. Format: in vivo. As to conditions: scopolamine 0.5 mg/kg s.c.; all LV-injected mice.
Series [15] deals with scopolamine-treated mice. The series can be described thus: Y-maze spontaneous alternation task after scopolamine challenge. Conditions: scopolamine 0.5 mg/kg s.c. 20 min before task.
Procedure: Mefloquine (Sigma-Aldrich, L’Isle d’Abeau Chesnes, France) and DPZ (Sigma-Aldrich) were dissolved in 2% dimethyl sulfoxide (DMSO) and administered acutely either intraperitoneally (i.p.) (5 mL/kg) or by oral gavage (p.o.) (10 mL/kg). Scopolamine (Sigma-Aldrich) was administered subcutaneously (s.c.) (5 mL/kg) in saline solution (0.9% NaCl).
Mice were placed at the end of one arm of a Y-maze and allowed to move freely through the maze during an 8-min session. Spontaneous alternation was defined as entries into all three arms on consecutive occasions. […] The number of total arm entries during the 8-min session was used to quantify locomotor activity.

T2 sequence (Q99720 whole entry, species assumed): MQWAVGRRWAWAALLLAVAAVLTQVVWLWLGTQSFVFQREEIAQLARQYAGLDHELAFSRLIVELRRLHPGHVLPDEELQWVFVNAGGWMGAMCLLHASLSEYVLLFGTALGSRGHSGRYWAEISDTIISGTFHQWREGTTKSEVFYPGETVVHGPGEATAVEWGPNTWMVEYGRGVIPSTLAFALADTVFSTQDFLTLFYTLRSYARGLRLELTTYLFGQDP

In general, Ki refers to a measure of affinity in units of concentration, obtained from inhibition or displacement. On to `OC(c1cc(C(F)(F)F)nc2c(C(F)(F)F)cccc12)C1CCCCN1` (stereo not shown) [MEF, Mefloquine], for which the Ki in [1], in [5], in series [6] and in [11] was above 1000 nM in each case. In addition, the “Effect of MEF on the potency of DPZ to inhibit AChE activity” value in [2] (MEF 0.5–4 μM added to DPZ, brain extracts) is recorded as “did not modify the potency of DPZ to inhibit AChE activity; also recorded: failed to affect DPZ-induced inhibition of AChE activity”. Moreover, in series [2] (even at 10 times the concentration reached in the brain), the “Effect of MEF on AChE activity” value is on record as “devoid of any effect on AChE activity”. The “Cx-mediated astroglial cellular coupling” value in series [3] is “efficiently reduces Cx-mediated astroglial cellular coupling”. For the same molecule, the “NOR test phase: effect on Aβ-induced impairment (preference index)” value in series [4] (MEF 1 mg/kg p.o. daily from day 1, Aβ25–35 i.c.v.) was “did not reverse the Aβ-induced impairment”. In series [7] (MEF 1 mg/kg p.o. daily), the “Morris water maze learning (swim latency): effect on Aβ-induced memory deficit” value was “showed no effect”. In addition, in [8], the “Interference with sigma-1 receptor” value was “does not interfere with sigma-1 receptor”. The “Hippocampal ACh outflow” value in series [9] is given as “did not significantly modify ACh outflow”. In addition, the “Crossing of the blood–brain barrier” value in [10] was “able to cross the blood–brain barrier”. Besides, the concentration at 24 h in [12] was around 500 nM. Moreover, the “NOR test session: effect on scopolamine-induced loss of novel object preference” value in series [13] (MEF 1 mg/kg i.p.) is “Neither MEF1 i.p., nor DPZ0.25 i.p., prevented the scopolamine effect”.
Turning to `CN1[C@@H]2C[C@@H](OC(=O)[C@H](CO)c3ccccc3)C[C@H]1[C@@H]1O[C@@H]12` [scopolamine, Scopolamine], the “NOL task: preference index for the displaced object” value in series [14] was around 50%. Moreover, in series [15], the “Spontaneous alternation (Y-maze): effect of scopolamine vs vehicle-treated mice” value is recorded as “significantly impaired spontaneous alternation”. For the same molecule, in series [13], the “NOR test session: effect of scopolamine on exploration of the novel object” value is “abolished the increase in exploration time of the novel object”.
Turning to “Aβ: Aβ25–35 peptide injected i.c.v. to induce Alzheimer’s disease–like memory deficits (GSNKGAIIGLM; Amyloid-beta protein 42; UniProt P05067 696-706, looked up, fragment)”, the “NOR test phase: effect of Aβ administration on exploration of the novel object” value in [4] (9 nmol Aβ25–35 i.c.v.) is given as “abolished the increase in exploration time of the novel object”. Also, in [7] (9 nmol Aβ25–35 i.c.v., learning days 3–5), the “Morris water maze learning: effect of Aβ i.c.v. injection vs Sc.Aβ” value is “induced a significant memory deficit”.
